This is an account of results in patent US20080176339A1, “NEUTRAL LABELING REACTANTS AND CONJUGATES DERIVED THEREOF” (WALLAC OY, priority 2006, published 2008).

Data set [1] in a line: Stabilities of chelates in DELFIA Enhancement Solution and DELFIA Inducer (dissociation of europium followed by time-resolved fluorometer). Format: physicochemical. The following applies: RT (25° C.). The protocol: The chelates (ca 1 mg) were dissolved either in Inducer or Enhanchement Solution. The dissociation of the europium at 25° C. were followed using a time-resolved fluorometer. The results are shown below

For the next data set, the system named is antiserum. Description: Performance of thyroxine tracers in DELFIA based T4-assay compared to AutoDELFIA Neonatal T4 kit. As to conditions: up to one week in instrument-like conditions. Here is the method:
The assay concentrations of the antiserum were optimized for each tracer individually, and the analytical sensitivities of the optimized standard curves were defined. The correlation between the methods were studied with a small sample panel. The on-board stability was tested up to one week in instrument-like conditions. Sensitivity to the interference of EDTA-containing samples was also studied.

The conditions of data set [2]: in vivo; cited from earlier work.

For the compound “Europium Chelate of 2-(4-aminobenzyl)-1,7-bis(aminocarbonylmethyl)-1,4,7-tris(carboxymethyl)-1,4,7-triazaheptane [Compound 10]”, in data set [1] (DELFIA Enhancement Solution), the “Approximate time needed for complete dissociation, Enhancer” value is on record as 30 min. Moreover, the “Approximate time needed for complete dissociation, Inducer” value in data set [1] (DELFIA Inducer) was below 5 min.
In the case of `NC(=O)CN(CCN(CC(=O)O)CC(Cc1ccc(NC(=S)NCCCCCC(=O)NC(Cc2cc(I)c(Oc3cc(I)c(O)c(I)c3)c(I)c2)C(=O)O)cc1)N(CC(N)=O)CC(=O)O)CC(=O)O` (centres unmarked) [Compound 13], in the data set with antiserum, the On board stability entry is recorded as “Better”.
Consider `O=C([O-])CN(CCN(CC(=O)[O-])CC(=O)O)CCN(CC(=O)[O-])CC(=O)O.[Gd+3]` [Gd-DTPA], for which, in data set [2], the “Crossing of intact blood-brain barrier” value is on record as “does not cross an intact blood-brain barrier”.
In the case of `O=C(O)CN(CCN(CC(=O)O)CC(Cc1ccc(NC(=S)NCCCCCC(=O)NC(Cc2cc(I)c(Oc3cc(I)c(O)c(I)c3)c(I)c2)C(=O)O)cc1)N(CC(=O)O)CC(=O)O)CC(=O)O` (centres unmarked) [Compound T4-DTPA], in the data set on antiserum, the On board stability entry is “Better”.
